In patent US11965039B2, “Compstatin analogues and their medical uses” (priority 2018, dated 2024):
Like-named read-outs stand apart in the source and are kept apart here. Blank lines part the entries; values can stand above or below the molecule they belong to. Starred links: 1 amine or outer side, 2 acyl side, 3 side chain; linkers in the order of their positions; H or OH if unused. Positions of bridges follow the written chain, without caps; N, C: chain ends. Non-standard residues stand in square brackets, D forms with d. Residues, ends and D or L forms follow the SMILES beside them. Groups on a side chain read outwards from the residue. *: point of attachment. Trp(1-Me) = Cn1cc(C[C@H](N)C(=O)O)c2ccccc21; C18 diacid = O=C(O)CCCCCCCCCCCCCCCCC(=O)*; C16 diacid = O=C(O)CCCCCCCCCCCCCCC(=O)*; γGlu = O=C(O)[C@H](CCC(=O)[*:2])N[*:1]; β3hI = CC[C@H](C)[C@H](N)CC(=O)O; Nle = CCCC[C@H](N)C(=O)O; Nva = CCC[C@H](N)C(=O)O; AEEA = NCCOCCOCC(=O)O; Sar = CNCC(=O)O

Assays:
[1] = system: classical complement pathway; assay: In vitro haemolysis assay (inhibition of classical complement pathway); type: cell-based, human; settings: human serum, sensitized sheep red blood cells; Table 3, given as upper bounds; read-out: IC50, inhibition of hemolysis
Summary of the method: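 Compound dilutions preincubated 15 min at room temperature with diluted human serum (titrated per batch for 70-90% maximal haemolysis), then antibody-sensitized sheep RBC (10^7/well) added for 30 min at 37 °C in Tris/casein buffer, pH 7.4. Stopped with EDTA; haemolysis read at 405 nm; IC50 by 4PL fit.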

[2] = Solubility test at 10 mg/mL (visual inspection and light scattering); type: physicochemical; settings: for Solubility, Condition 1: Acetate pH 4; for Solubility, Condition 2: Acetate pH 5; for Solubility, Condition 3: Phosphate pH 6; for Solubility, Condition 4: Phosphate pH 7; for Solubility, Condition 5: Phosphate pH 7.5
[3] = Pharmacokinetic half-life in non-human primates (serum, LC-MS/MS); type: in vivo, Cynomolgus monkeys (Macaca fascicularis); settings: male, cynomolgus monkey, sc, NHP, single subcutaneous dose 1840 nmol/kg, * = approximate determination
Method: Healthy male Cynomolgus monkeys (Macaca fascicularis) received single subcutaneous administrations of each test substance. Compounds were formulated in 20 mM phosphate adjusted with NaOH to pH 7.5 and mannitol for isotonicity and dosed at 1840 nmol/kg. Blood was collected from a femoral vein from each animal at the following times: Pre-dose, 1, 2, 4, 8, 24, 48, 72, 96 and 120 h (10 sampling times). Blood was collected into serum separation tubes and allowed to clot at room temperature. The tubes were centrifuged and resulting serum was aliquoted and snap-frozen over dry-ice and stored at nominally −80° C. until analysis. All NHP studies were performed in accordance with animal welfare laws and regulations, including approval of the study by a local ethical review process.
In order to assess pharmacokinetic half-life (t ½), serum samples isolated from non-human primates at specific time points after dosing were analysed for total drug compound after sample preparation by solid phase extraction (SPE) and liquid chromatography mass spectrometry (LC-MS/MS) using analogue internal standard. Single measurement of serum concentrations were used for calculation of the pharmacokinetic parameters using the non-compartmental approach in Phoenix WinNonlin 6.3. Plasma terminal elimination half-life (t½) was determined as In(2)/λz where λz is the magnitude of the slope of the log linear regression of the log concentration versus time profile during the terminal phase.

[4] = target: T1, Human C3 (Complement tech cat #A113c) (human, UniProt P01024 23-1663); assay: cell-based or functional assay
T1 sequence (P01024 23-1663 limits assumed): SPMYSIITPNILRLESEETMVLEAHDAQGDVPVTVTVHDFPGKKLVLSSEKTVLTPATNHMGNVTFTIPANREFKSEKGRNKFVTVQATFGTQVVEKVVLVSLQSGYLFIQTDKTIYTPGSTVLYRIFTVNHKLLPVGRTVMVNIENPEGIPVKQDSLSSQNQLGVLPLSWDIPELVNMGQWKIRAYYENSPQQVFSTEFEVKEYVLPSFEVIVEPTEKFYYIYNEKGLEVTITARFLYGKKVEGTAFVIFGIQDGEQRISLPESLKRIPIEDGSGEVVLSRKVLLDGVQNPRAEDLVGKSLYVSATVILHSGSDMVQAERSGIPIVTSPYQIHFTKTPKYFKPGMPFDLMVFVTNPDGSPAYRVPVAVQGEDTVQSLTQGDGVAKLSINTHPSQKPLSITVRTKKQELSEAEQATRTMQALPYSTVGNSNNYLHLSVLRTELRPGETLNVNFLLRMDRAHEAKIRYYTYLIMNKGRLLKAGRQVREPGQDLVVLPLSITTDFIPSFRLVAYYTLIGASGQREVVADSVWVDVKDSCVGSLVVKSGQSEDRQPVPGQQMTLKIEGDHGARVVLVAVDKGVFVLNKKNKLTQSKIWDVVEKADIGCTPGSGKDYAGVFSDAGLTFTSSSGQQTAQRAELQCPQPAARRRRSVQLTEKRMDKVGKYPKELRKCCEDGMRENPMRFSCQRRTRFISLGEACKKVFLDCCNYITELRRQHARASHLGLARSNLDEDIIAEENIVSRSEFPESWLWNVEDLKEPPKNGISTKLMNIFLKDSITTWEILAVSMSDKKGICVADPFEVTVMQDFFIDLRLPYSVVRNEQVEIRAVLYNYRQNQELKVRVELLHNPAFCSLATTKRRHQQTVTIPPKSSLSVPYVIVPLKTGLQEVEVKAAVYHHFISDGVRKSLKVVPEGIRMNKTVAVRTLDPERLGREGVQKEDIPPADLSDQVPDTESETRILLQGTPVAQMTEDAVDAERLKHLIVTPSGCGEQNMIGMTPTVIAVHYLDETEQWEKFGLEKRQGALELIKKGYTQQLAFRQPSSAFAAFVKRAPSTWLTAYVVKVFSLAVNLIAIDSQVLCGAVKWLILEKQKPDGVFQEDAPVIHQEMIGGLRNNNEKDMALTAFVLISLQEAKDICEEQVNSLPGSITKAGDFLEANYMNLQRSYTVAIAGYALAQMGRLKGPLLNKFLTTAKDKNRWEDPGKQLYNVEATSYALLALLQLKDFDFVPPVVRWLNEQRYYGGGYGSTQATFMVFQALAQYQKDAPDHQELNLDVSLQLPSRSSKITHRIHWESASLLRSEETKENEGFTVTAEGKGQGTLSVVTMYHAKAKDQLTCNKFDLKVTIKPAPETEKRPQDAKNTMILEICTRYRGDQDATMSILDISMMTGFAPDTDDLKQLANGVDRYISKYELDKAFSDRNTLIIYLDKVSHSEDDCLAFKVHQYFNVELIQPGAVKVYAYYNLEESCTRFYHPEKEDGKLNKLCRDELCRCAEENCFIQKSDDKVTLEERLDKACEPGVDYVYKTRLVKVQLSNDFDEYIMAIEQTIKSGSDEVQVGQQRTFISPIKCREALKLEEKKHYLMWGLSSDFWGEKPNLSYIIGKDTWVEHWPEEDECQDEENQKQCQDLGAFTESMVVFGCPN

[5] = target: T1, Human C3 (Complement tech cat #A113c); assay: cell-based or functional assay; remark: listed apart in the source
[6] = target: T1, Human C3 (Complement tech cat #A113c); assay: cell-based or functional assay; remark: listed apart in the source
[7] = target: T1, Human C3 (Complement tech cat #A113c); assay: SPR (Biacore T200), human C3 immobilised, peptide injected, 1:1 fit
Summary of the method: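 Human C3 amine-coupled on CM5 chips to about 3000 RU. Multi-cycle runs on Biacore T200 at 25° C: peptides at 6-8 rising concentrations, 60-120 s at 30 µL/min in 10 mM Tris pH 7.4, 150 mM NaCl, 0.05% Tween20, dissociation up to 10 min; 3 M MgCl2 regeneration. Kd derived.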

[8] = target: T1, Human C3 (Complement tech cat #A113c); assay: as above; remark: listed apart in the source
Method: Surface plasmon resonance (SPR) was used to characterize peptides with respect to their binding affinity (Kd) for C3. Human C3 (Complement tech cat #A113c) was immobilised on individual flow cells of CM5 sensor chips (GE Healthcare) using standard amine coupling to a density of approximately 3000 resonance units (RU) in a buffer consisting of 10 mM phosphate pH 7.4, 150 mM NaCl, 0.05% Tween20.
For interaction experiments a multi-cycle experiment approach was used and performed using a BiacoreT200™ instrument (GE Healthcare) at 25° C. Peptides were injected in increasing concentration series (6-8 different concentrations) for 60-120 sat a flow rate of 30 µL/min in a buffer consisting of 10 mM Tris buffer at pH 7.4, with 150 mM NaCl and 0.05% Tween20. This was followed by a dissociation period for up to 10 min. The C3 surface was regenerated between runs by a 45 s injection of 3 M MgCl_2.

half-life [3]: ~96.3 h
Molecule: CC[C@H](C)[C@@H]1NC(=O)[C@@H](NC(=O)[C@H](Cc2ccc(O)cc2)NC(=O)[C@H](C)NC(=O)[C@H](CO)NC(=O)CNC(=O)[C@H](CCC(=O)O)NC(C)=O)CSSC[C@@H](C(=O)N(C)CC(=O)N[C@@H](CCC(=O)O)C(=O)NCC(=O)N[C@@H](CCCCNC(=O)COCCOCCNC(=O)COCCOCCNC(=O)CC[C@H](NC(=O)CCCCCCCCCCCCCCC(=O)O)C(=O)O)C(N)=O)NC(=O)[C@H](CCCNC(=N)N)NC(=O)[C@H](Cc2c[nH]cn2)NC(=O)[C@H](CCC(=O)O)NC(=O)CNC(=O)[C@H](Cc2c[nH]c3ccccc23)NC(=O)[C@H](CC(=O)O)NC(=O)[C@H](CCC(N)=O)NC(=O)[C@H](Cc2cn(C)c3ccccc23)NC1=O [Compound 104] (Ac-EGSAYCI[Trp(1-Me)]QDWGEHRC[Sar]EGK([AEEA-AEEA-γGlu-C16 diacid])-NH2; disulfide 6-16)
IC50 [1]: < 100 nM | Solubility, Condition 1 [2]: − (“−” denotes lack of solubility at the given condition, as UV absorbance at 340 nm exceeds 0.1 AU and/or it is visibly turbid or contains particles) | Solubility, Condition 2 [2]: + (“+” denotes solubility at the given condition, as determined by UV absorbance being less than 0.1 AU at 340 nm and the sample being clear when manually inspected) | Solubility, Condition 3 [2]: + (“+” denotes solubility at the given condition, as determined by UV absorbance being less than 0.1 AU at 340 nm and the sample being clear when manually inspected) | Solubility, Condition 4 [2]: + (“+” denotes solubility at the given condition, as determined by UV absorbance being less than 0.1 AU at 340 nm and the sample being clear when manually inspected) | Solubility, Condition 5 [2]: + (“+” denotes solubility at the given condition, as determined by UV absorbance being less than 0.1 AU at 340 nm and the sample being clear when manually inspected)

half-life [3]: ~93.9 h
Molecule: CC[C@H](C)[C@@H]1NC(=O)[C@@H](NC(=O)[C@H](Cc2ccc(O)cc2)NC(=O)[C@H](C)NC(=O)[C@H](CO)NC(C)=O)CSSC[C@@H](C(=O)N(C)CC(=O)N[C@@H](CCC(=O)O)C(=O)N[C@@H](CCCCNC(=O)CC[C@H](NC(=O)CNC(=O)CC[C@H](NC(=O)CCCCCCCCCCCCCCCCC(=O)O)C(=O)O)C(=O)O)C(N)=O)NC(=O)[C@H](CCCNC(=N)N)NC(=O)[C@H](Cc2c[nH]cn2)NC(=O)[C@H](CCC(=O)O)NC(=O)CNC(=O)[C@H](Cc2c[nH]c3ccccc23)NC(=O)[C@H](CC(=O)O)NC(=O)[C@H](CCC(N)=O)NC(=O)[C@H](Cc2cn(C)c3ccccc23)NC1=O [Compound 106] (Ac-SAYCI[Trp(1-Me)]QDWGEHRC[Sar]EK([γGlu-Gly-γGlu-C18 diacid])-NH2; disulfide 4-14)
IC50 [1]: < 250 nM

half-life [3]: ~157 h
Molecule: CC[C@H](C)[C@@H]1NC(=O)[C@@H](NC(=O)[C@H](Cc2ccc(O)cc2)NC(=O)[C@H](C)NC(=O)[C@H](CO)NC(=O)CNC(=O)[C@H](CCC(=O)O)NC(C)=O)CSSC[C@@H](C(=O)N(C)CC(=O)N[C@@H](CCC(=O)O)C(=O)N[C@@H](CCCCN)C(=O)N[C@@H](CCC(=O)N[C@@H](CCCCNC(=O)COCCOCCNC(=O)COCCOCCNC(=O)CC[C@H](NC(=O)CCCCCCCCCCCCCCCCC(=O)O)C(=O)O)C(N)=O)C(=O)O)NC(=O)[C@H](CCCNC(=N)N)NC(=O)[C@H](Cc2c[nH]cn2)NC(=O)[C@H](CCC(=O)O)NC(=O)CNC(=O)[C@H](Cc2c[nH]c3ccccc23)NC(=O)[C@H](CC(=O)O)NC(=O)[C@H](CCC(N)=O)NC(=O)[C@H](Cc2cn(C)c3ccccc23)NC1=O [Compound 111] (Ac-EGSAYCI[Trp(1-Me)]QDWGEHRC[Sar]EK[γGlu]K([AEEA-AEEA-γGlu-C18 diacid])-NH2; disulfide 6-16)
IC50 [1]: < 100 nM | Solubility, Condition 1 [2]: − (“−” denotes lack of solubility at the given condition, as UV absorbance at 340 nm exceeds 0.1 AU and/or it is visibly turbid or contains particles) | Solubility, Condition 2 [2]: − (“−” denotes lack of solubility at the given condition, as UV absorbance at 340 nm exceeds 0.1 AU and/or it is visibly turbid or contains particles) | Solubility, Condition 3 [2]: + (“+” denotes solubility at the given condition, as determined by UV absorbance being less than 0.1 AU at 340 nm and the sample being clear when manually inspected) | Solubility, Condition 4 [2]: + (“+” denotes solubility at the given condition, as determined by UV absorbance being less than 0.1 AU at 340 nm and the sample being clear when manually inspected) | Solubility, Condition 5 [2]: + (“+” denotes solubility at the given condition, as determined by UV absorbance being less than 0.1 AU at 340 nm and the sample being clear when manually inspected)

Kd [7]: 16 nM | Kd [8]: 16 nM
B1: Compound 2 (peptide)
peptide: Ac-ICIWQDWGEHRCT-NH2
modifications: disulfide 2-12
SMILES: CC[C@H](C)[C@H](NC(C)=O)C(=O)N[C@H]1CSSC[C@@H](C(=O)N[C@H](C(N)=O)[C@@H](C)O)NC(=O)[C@H](CCCNC(=N)N)NC(=O)[C@H](Cc2c[nH]cn2)NC(=O)[C@H](CCC(=O)O)NC(=O)CNC(=O)[C@H](Cc2c[nH]c3ccccc23)NC(=O)[C@H](CC(=O)O)NC(=O)[C@H](CCC(N)=O)NC(=O)[C@H](Cc2c[nH]c3ccccc23)NC(=O)[C@H]([C@@H](C)CC)NC1=O
inhibition of hemolysis IC50 [4]: < 100 nM | CP hemolysis IC50 [5]: 94 nM | IC50, CP hemolysis [6]: < 100 nM

Kd [8]: 130 nM
B2: Compound A (peptide)
peptide: Ac-ICVWQDWGEHRCT-NH2
modifications: disulfide 2-12
SMILES: CC[C@H](C)[C@H](NC(C)=O)C(=O)N[C@H]1CSSC[C@@H](C(=O)N[C@H](C(N)=O)[C@@H](C)O)NC(=O)[C@H](CCCNC(=N)N)NC(=O)[C@H](Cc2c[nH]cn2)NC(=O)[C@H](CCC(=O)O)NC(=O)CNC(=O)[C@H](Cc2c[nH]c3ccccc23)NC(=O)[C@H](CC(=O)O)NC(=O)[C@H](CCC(N)=O)NC(=O)[C@H](Cc2c[nH]c3ccccc23)NC(=O)[C@H](C(C)C)NC1=O
CP hemolysis IC50 [5]: 350 nM | IC50, CP hemolysis [6]: 350 nM

B3: Ac-IC(1)XWQDWGEHRC(1)T-NH2 with Norleucine at position 3 (peptide)
peptide: Ac-IC[Nle]WQDWGEHRCT-NH2
modifications: disulfide 2-12
SMILES: CCCC[C@@H]1NC(=O)[C@@H](NC(=O)[C@@H](NC(C)=O)[C@@H](C)CC)CSSC[C@@H](C(=O)N[C@H](C(N)=O)[C@@H](C)O)NC(=O)[C@H](CCCNC(=N)N)NC(=O)[C@H](Cc2c[nH]cn2)NC(=O)[C@H](CCC(=O)O)NC(=O)CNC(=O)[C@H](Cc2c[nH]c3ccccc23)NC(=O)[C@H](CC(=O)O)NC(=O)[C@H](CCC(N)=O)NC(=O)[C@H](Cc2c[nH]c3ccccc23)NC1=O
IC50, CP hemolysis [6]: 480 nM

B4: Ac-IC(1)XWQDWGEHRC(1)T-NH2 with Norvaline at position 3 (peptide)
peptide: Ac-IC[Nva]WQDWGEHRCT-NH2
modifications: disulfide 2-12
SMILES: CCC[C@@H]1NC(=O)[C@@H](NC(=O)[C@@H](NC(C)=O)[C@@H](C)CC)CSSC[C@@H](C(=O)N[C@H](C(N)=O)[C@@H](C)O)NC(=O)[C@H](CCCNC(=N)N)NC(=O)[C@H](Cc2c[nH]cn2)NC(=O)[C@H](CCC(=O)O)NC(=O)CNC(=O)[C@H](Cc2c[nH]c3ccccc23)NC(=O)[C@H](CC(=O)O)NC(=O)[C@H](CCC(N)=O)NC(=O)[C@H](Cc2c[nH]c3ccccc23)NC1=O
IC50, CP hemolysis [6]: > 1000 nM

B5: Ac-IC(1)XWQDWGEHRC(1)T-NH2 with Beta-Homo-Isoleucine at position 3 (peptide)
peptide: Ac-IC[β3hI]WQDWGEHRCT-NH2
modifications: disulfide 2-12
IC50, CP hemolysis [6]: > 10000 nM
